In patent US8609608B2, “Antimicrobial peptides” (C3 Jian, Inc., priority 2007, dated 2013):
Where no end group is shown, it is not given here.

Key:
[1] = test system: clinical isolates of S. mutans; format: cell-based, Streptococcus mutans; conditions: clinical isolates of
Procedure: (§1) S. mutans clinical isolates UA140 (32), UA159 (1), T8 (33), ATCC 25175, GS5 (Kuramitsu and Ingersoll (1977) Infect Immun., 17: 330-337), and all gram-positive strains listed below (see Table 9) were grown under anaerobic conditions in brain heart infusion or Todd-Hewitt (TH) broth (Difco) overnight at 37° C. prior to use (Eckert et al. (2006) Antimicrob. Agents Chemother. 50: 3651-3657). Veillonella atypica PK1910 was grown in Veillonella medium (Egland et al. (2004) Proc. Natl. Acad. Sci., USA, 101: 16917-16922). All strains were grown in an anaerobic atmosphere of 80% N2, 10% CO2, and 10% H2.
(§2) Antibacterial growth inhibition assays were performed using sterile 96-well plates in a final volume of 100 μl, TH or Veillonella medium as described previously (Qi et al. (2005) FEMS Microbial Lett. 251: 321-326). Briefly, bacterial cells were grown overnight to an optical density at 600 nm of 0.75 to 0.8 (corresponding to 1×10^8 CFU/ml) and then diluted to 1×10^5 CFU/ml in broth and aliquoted onto plates. An appropriate volume of peptide stock solution (5 to 20 mg/ml, in water or methanol, depending on solubility) was then added to the first column of the plate to give 500 μg/ml or 512 μg/ml, followed by serial 1:2 dilutions across the plate to give wells containing peptides ranging from 500 to 1.95 μg/ml or 512 to 2 μg/ml. Methanol alone was also added to control for the effects of the solvent. The plates were then incubated at 37° C. under anaerobic conditions for 16 to 20 h without shaking, and the MIC was determined as the concentration of peptide present in the last clear well after visual inspection. Up to 5% (vol/vol) methanol was found not to be antimicrobial (data not shown). MICs were determined in triplicate for all bacteria.

[2] = test system: S. gordonii Challis DL1; format: cell-based, Streptococcus gordonii
Procedure: as §1, §2

[3] = test system: S. mitis ATCC 903; format: cell-based, Streptococcus mitis
Procedure: as §1, §2

[4] = test system: S. sanguinis NY101; format: cell-based, Streptococcus sanguinis
Procedure: as §1, §2

[5] = test system: L. casei ATCC 4646; format: cell-based, Lactobacillus casei
Procedure: as §1, §2

[6] = test system: V. atypica PK1910; format: cell-based, Veillonella atypica
Procedure: as §1, §2

[7] = test system: P. aeruginosa; assay: MIC against P. aeruginosa; format: cell-based, Pseudomonas aeruginosa
[8] = test system: S. aureus
[9] = test system: E. faecalis
[10] = test system: L. casei

Substance	MIC (fusion library peptides) [1]	MIC S. gordonii Challis DL1 [2]	MIC S. mitis ATCC 903 [3]	MIC S. sanguinis NY101 [4]	MIC L. casei ATCC 4646 [5]	MIC V. atypica PK1910 [6]	MIC S. mutans [1]	MIC P. aeruginosa [7]	MIC S. aureus [8]	MIC E. faecalis [9]	MIC L. casei [10]	MIC [1]
RWRWRWFGGGFKKFWKWFRRF-NH2 [FBRW-22, RWRWRWF-GGG-FKKFWKWFRRF*]	4 to 8 µg/mL	16 µg/mL	64 µg/mL	8 µg/mL	8 µg/mL	8 µg/mL						
VFRHRFIHRHVF [Peptide S3L8-19, VFRHRFIHRHVF]							>125 µg/mL	>125 µg/mL	>125 µg/mL	>125 µg/mL	>62.5 µg/mL	
LKRFLKWFKRFGGGRWRWRWF-NH2 [FBRW-16, LKRFLKWFKRF-GGG-RWRWRWF*]	4 to 16 µg/mL	64 µg/mL	64 µg/mL	16 µg/mL	16 µg/mL	8 µg/mL						
FRHRFRHRF [Peptide S3L8-34, FRHRFRHRF]							>125 µg/mL	>125 µg/mL	>125 µg/mL	>125 µg/mL	>62.5 µg/mL	
VLKHVIAHKRLF [Peptide S3L8-25, VLKHVIAHKRLF]							>125 µg/mL	>125 µg/mL	>125 µg/mL	>125 µg/mL	>62.5 µg/mL	
FLFKHLFLHRIFF [Peptide S3L8-16, FLFKHLFLHRIFF]							>125 µg/mL	>125 µg/mL	>125 µg/mL	>125 µg/mL	>62.5 µg/mL	
VLIRILVRVIF [Peptide S3L8-33, VLIRILVRVIF]							>125 µg/mL	>125 µg/mL	125 µg/mL	16 µg/mL	16 µg/mL	
RWRWRWF-NH2 [Peptide 2C-4, RWRWRWF*]		32 µg/mL	32 µg/mL	32 µg/mL	32 µg/mL	64 µg/mL						4 to 8 µg/mL
VFKRVLIHKLIF [Peptide S3L8-23, VFKRVLIHKLIF]							>125 µg/mL	>125 µg/mL	>125 µg/mL	32 µg/mL	62.5 µg/mL	
VIRHVWVRKLF [Peptide S3L8-27, VIRHVWVRKLF]							60 µg/mL	>125 µg/mL	>125 µg/mL	>125 µg/mL	>62.5 µg/mL	
LRIHARFKVHIRLKF [Peptide S3L8-5, LRIHARFKVHIRLKF]							60 µg/mL	>125 µg/mL	>125 µg/mL	12 µg/mL	8 µg/mL	
LRLRHRVLF [Peptide S3L8-37, LRLRHRVLF]							>125 µg/mL	>125 µg/mL	>125 µg/mL	>125 µg/mL	>62.5 µg/mL	
LKHKLKHKF [Peptide S3L8-35, LKHKLKHKF]							>125 µg/mL	>125 µg/mL	>125 µg/mL	>125 µg/mL	>62.5 µg/mL	
FKHKFKHKFIF [Peptide S3L8-30, FKHKFKHKFIF]							>125 µg/mL	>125 µg/mL	>125 µg/mL	>125 µg/mL	>62.5 µg/mL	
LRLFLRWLF [Peptide S3L8-39, LRLFLRWLF]							16 µg/mL	>125 µg/mL	16 µg/mL	32 µg/mL	16 µg/mL	
FKFLFKHKF [Peptide S3L8-40, FKFLFKHKF]							30 µg/mL	>125 µg/mL	>125 µg/mL	62.5 µg/mL	62.5 µg/mL	

Substance	MIC (fusion library peptides) [1]	MIC S. gordonii Challis DL1 [2]	MIC S. mitis ATCC 903 [3]	MIC S. sanguinis NY101 [4]	MIC L. casei ATCC 4646 [5]	MIC V. atypica PK1910 [6]	MIC S. mutans [1]	MIC P. aeruginosa [7]	MIC S. aureus [8]	MIC E. faecalis [9]	MIC L. casei [10]	MIC [1]
LILKFLFKFVF [Peptide S3L8-32, LILKFLFKFVF]							31 µg/mL	>125 µg/mL	16 µg/mL	16 µg/mL	16 µg/mL	
WRWRARWRWRLRWRF [Peptide S3L8-3, WRWRARWRWRLRWRF]							4 µg/mL	>125 µg/mL	16 µg/mL	8 µg/mL	16 µg/mL	
FLFRHRFRHRLVF [Peptide S3L8-28, FLFRHRFRHRLVF]							60 µg/mL	>125 µg/mL	>125 µg/mL	62.5 µg/mL	>62.5 µg/mL	
FKFLFKF [Peptide S3L8-42, FKFLFKF]							>125 µg/mL	>125 µg/mL	>125 µg/mL	>125 µg/mL	>62.5 µg/mL	
VLRHLFRHRIVF [Peptide S3L8-21, VLRHLFRHRIVF]							60 µg/mL	>125 µg/mL	>125 µg/mL	93.5 µg/mL	>62.5 µg/mL	
FLHKHLFKHKLF [Peptide S3L8-18, FLHKHLFKHKLF]							>125 µg/mL	>125 µg/mL	>125 µg/mL	>125 µg/mL	>62.5 µg/mL	
LKAKIKFKVKLKIKF [Peptide S3L8-11, LKAKIKFKVKLKIKF]							8 µg/mL	32 to 62.5 µg/mL	125 µg/mL	39 µg/mL	3 µg/mL	
FIRKFLFKHLF [Peptide S3L8-26, FIRKFLFKHLF]							16 µg/mL	>125 µg/mL	62.5 µg/mL	24 µg/mL	16 µg/mL	
LRHRLRHRLIF [Peptide S3L8-31, LRHRLRHRLIF]							>125 µg/mL	>125 µg/mL	>125 µg/mL	125 µg/mL	>62.5 µg/mL	
LVHKLILRHLLF [Peptide S3L8-22, LVHKLILRHLLF]							>125 µg/mL	>125 µg/mL	>125 µg/mL	>125 µg/mL	>62.5 µg/mL	
FKFLFKFLF [Peptide S3L8-38, FKFLFKFLF]							>125 µg/mL	>125 µg/mL	>125 µg/mL	>125 µg/mL	32 µg/mL	
FVFRHKWVWKHRFLF [Peptide S3L8-1, FVFRHKWVWKHRFLF]							16 µg/mL	>125 µg/mL	>125 µg/mL	32 µg/mL	62.5 µg/mL	
LRLFLRHRF [Peptide S3L8-41, LRLFLRHRF]							16 µg/mL	>125 µg/mL	>125 µg/mL	62.5 µg/mL	>62.5 µg/mL	
FKFKHKLIF [Peptide S3L8-36, FKFKHKLIF]							>125 µg/mL	>125 µg/mL	>125 µg/mL	>125 µg/mL	>62.5 µg/mL	
WIWKHKFLHRHFLF [Peptide S3L8-12, WIWKHKFLHRHFLF]							125 µg/mL	>125 µg/mL	>125 µg/mL	125 µg/mL	>62.5 µg/mL	
LRLFLRF [Peptide S3L8-43, LRLFLRF]							>125 µg/mL	>125 µg/mL	>125 µg/mL	>125 µg/mL	>62.5 µg/mL	
